According to paper PMC6422671 (British Journal of Clinical Pharmacology, 2019):

Assay: Clinical laboratory findings: chemistry; data mean (standard deviation)
Format: in vivo, healthy men
Text: Data are mean (standard deviation).

## C[C@@H](N)c1cc(Cl)ccc1Cn1c(=S)[nH]c(=O)c2[nH]ccc21 [AZD4831]
45 mg fed, 24 h
  ALP: 0.993 (0.202) µkat L^–1
  ALT: 0.324 (0.125) µkat L^–1
  AST: 0.281 (0.048) µkat L^–1
  Albumin: 41.2 (3.8) g L^–1
  Bilirubin: 9.7 (0.6) µmol L^–1
  CRP: 0.42 (0.20) mg L^–1
  Calcium: 2.30 (0.10) mmol L^–1
  Creatinine: 71.2 (11.4) µmol L^–1
  GGT: 0.310 (0.053) µkat L^–1
  Glucose: 5.06 (0.38) mmol L^–1
  Phosphate: 1.10 (0.08) mmol L^–1
  Potassium: 4.28 (0.26) mmol L^–1
  Sodium: 139.6 (1.6) mmol L^–1
  Urea: 4.04 (0.45) mmol L^–1
45 mg fed, 48 h
  ALP: 1.004 (0.205) µkat L^–1
  ALT: 0.325 (0.119) µkat L^–1
  AST: 0.296 (0.053) µkat L^–1
  Albumin: 42.1 (3.4) g L^–1
  Bilirubin: 9.5 (1.3) µmol L^–1
  CRP: 0.42 (0.22) mg L^–1
  Calcium: 2.33 (0.07) mmol L^–1
  Creatinine: 70.9 (9.3) µmol L^–1
  GGT: 0.303 (0.051) µkat L^–1
  Glucose: 5.27 (0.13) mmol L^–1
  Phosphate: 1.09 (0.05) mmol L^–1
  Potassium: 4.27 (0.05) mmol L^–1
  Sodium: 140.1 (1.4) mmol L^–1
  Urea: 4.19 (0.41) mmol L^–1
45 mg fed, follow up
  ALP: 1.103 (0.265) µkat L^–1
  ALT: 0.364 (0.151) µkat L^–1
  AST: 0.358 (0.049) µkat L^–1
  Albumin: 44.1 (3.2) g L^–1
  Bilirubin: 9.6 (2.3) µmol L^–1
  CRP: 2.35 (3.10) mg L^–1
  Calcium: 2.34 (0.08) mmol L^–1
  Creatinine: 74.6 (5.0) µmol L^–1
  GFR: 109 (15) mL min^–1 1.73m^–2
  GGT: 0.316 (0.087) µkat L^–1
  Glucose: 5.18 (0.25) mmol L^–1
  Phosphate: 1.08 (0.11) mmol L^–1
  Potassium: 4.34 (0.20) mmol L^–1
  Sodium: 139.6 (0.6) mmol L^–1
  Urea: 4.18 (0.78) mmol L^–1
135 mg fasted, 24 h
  ALP: 1.128 (0.226) µkat L^–1
  ALT: 0.323 (0.137) µkat L^–1
  AST: 0.304 (0.076) µkat L^–1
  Albumin: 43.4 (2.4) g L^–1
  Bilirubin: 12.2 (4.3) µmol L^–1
  CRP: 0.60 (0.30) mg L^–1
  Calcium: 2.36 (0.08) mmol L^–1
  Creatinine: 83.6 (8.7) µmol L^–1
  GGT: 0.318 (0.171) µkat L^–1
  Glucose: 4.74 (0.58) mmol L^–1
  Phosphate: 1.06 (0.23) mmol L^–1
  Potassium: 4.11 (0.11) mmol L^–1
  Sodium: 139.8 (0.7) mmol L^–1
  Urea: 4.50 (0.56) mmol L^–1
135 mg fasted, 48 h
  ALP: 1.175 (0.250) µkat L^–1
  ALT: 0.325 (0.191) µkat L^–1
  AST: 0.308 (0.101) µkat L^–1
  Albumin: 43.9 (2.8) g L^–1
  Bilirubin: 11.6 (3.5) µmol L^–1
  CRP: 0.50 (0.26) mg L^–1
  Calcium: 2.37 (0.07) mmol L^–1
  Creatinine: 81.0 (9.1) µmol L^–1
  GGT: 0.325 (0.161) µkat L^–1
  Glucose: 4.75 (0.37) mmol L^–1
  Phosphate: 1.01 (0.19) mmol L^–1
  Potassium: 4.06 (0.17) mmol L^–1
  Sodium: 140.3 (1.4) mmol L^–1
  Urea: 4.24 (0.74) mmol L^–1
135 mg fasted, follow up
  ALP: 1.239 (0.208) µkat L^–1
  ALT: 0.299 (0.129) µkat L^–1
  AST: 0.332 (0.064) µkat L^–1
  Albumin: 46.0 (2.6) g L^–1
  Bilirubin: 13.1 (5.1) µmol L^–1
  CRP: 8.94 (12.69) mg L^–1
  Calcium: 2.36 (0.11) mmol L^–1
  Creatinine: 85.1 (12.7) µmol L^–1
  GFR: 104 (22) mL min^–1 1.73m^–2
  GGT: 0.306 (0.143) µkat L^–1
  Glucose: 4.71 (0.54) mmol L^–1
  Phosphate: 1.00 (0.21) mmol L^–1
  Potassium: 4.07 (0.20) mmol L^–1
  Sodium: 140.2 (2.1) mmol L^–1
  Urea: 4.15 (1.35) mmol L^–1
405 mg fasted, 24 h
  ALP: 0.958 (0.139) µkat L^–1
  ALT: 0.338 (0.119) µkat L^–1
  AST: 0.363 (0.077) µkat L^–1
  Albumin: 43.7 (2.3) g L^–1
  Bilirubin: 14.9 (2.3) µmol L^–1
  CRP: 1.17 (1.28) mg L^–1
  Calcium: 2.39 (0.06) mmol L^–1
  Creatinine: 86.2 (14.7) µmol L^–1
  GGT: 0.298 (0.146) µkat L^–1
  Glucose: 4.77 (0.30) mmol L^–1
  Phosphate: 1.07 (0.11) mmol L^–1
  Potassium: 4.42 (0.31) mmol L^–1
  Sodium: 139.2 (1.0) mmol L^–1
  Urea: 4.55 (1.01) mmol L^–1
405 mg fasted, 48 h
  ALP: 0.947 (0.186) µkat L^–1
  ALT: 0.351 (0.097) µkat L^–1
  AST: 0.366 (0.075) µkat L^–1
  Albumin: 44.2 (2.7) g L^–1
  Bilirubin: 13.4 (2.1) µmol L^–1
  CRP: 1.19 (1.17) mg L^–1
  Calcium: 2.40 (0.06) mmol L^–1
  Creatinine: 81.1 (13.0) µmol L^–1
  GGT: 0.290 (0.133) µkat L^–1
  Glucose: 4.88 (0.35) mmol L^–1
  Phosphate: 1.06 (0.15) mmol L^–1
  Potassium: 4.33 (0.33) mmol L^–1
  Sodium: 139.6 (1.0) mmol L^–1
  Urea: 4.68 (1.07) mmol L^–1
405 mg fasted, follow up
  ALP: 1.037 (0.190) µkat L^–1
  ALT: 0.346 (0.071) µkat L^–1
  AST: 0.398 (0.062) µkat L^–1
  Albumin: 46.6 (2.7) g L^–1
  Bilirubin: 13.2 (3.1) µmol L^–1
  CRP: 1.17 (0.86) mg L^–1
  Calcium: 2.43 (0.10) mmol L^–1
  Creatinine: 81.1 (12.2) µmol L^–1
  GFR: 104 (12) mL min^–1 1.73m^–2
  GGT: 0.298 (0.137) µkat L^–1
  Glucose: 4.63 (0.39) mmol L^–1
  Phosphate: 1.12 (0.17) mmol L^–1
  Potassium: 4.39 (0.18) mmol L^–1
  Sodium: 141.5 (2.6) mmol L^–1
  Urea: 3.87 (0.96) mmol L^–1
Except serum uric acid at 135 mg or 405 mg
  changes in clinical chemistry, haematology or urinary parameters: no systemic or dose‐related changes
